Laboratory results from patent US7671085B2, “Non-steroidal farnesoid X receptor modulators and methods for the use thereof” (The Salk Institute for Biological Studies, priority 2002, dated 2010).
“Also recorded” adds a separate entry of the source.

Biological target: T1, FXR (Homo sapiens, UniProt Q96RI1)
T1 construct: using a full length FXR on a natural response element; expressed in transfected cells
T1 sequence (Q96RI1 1-486): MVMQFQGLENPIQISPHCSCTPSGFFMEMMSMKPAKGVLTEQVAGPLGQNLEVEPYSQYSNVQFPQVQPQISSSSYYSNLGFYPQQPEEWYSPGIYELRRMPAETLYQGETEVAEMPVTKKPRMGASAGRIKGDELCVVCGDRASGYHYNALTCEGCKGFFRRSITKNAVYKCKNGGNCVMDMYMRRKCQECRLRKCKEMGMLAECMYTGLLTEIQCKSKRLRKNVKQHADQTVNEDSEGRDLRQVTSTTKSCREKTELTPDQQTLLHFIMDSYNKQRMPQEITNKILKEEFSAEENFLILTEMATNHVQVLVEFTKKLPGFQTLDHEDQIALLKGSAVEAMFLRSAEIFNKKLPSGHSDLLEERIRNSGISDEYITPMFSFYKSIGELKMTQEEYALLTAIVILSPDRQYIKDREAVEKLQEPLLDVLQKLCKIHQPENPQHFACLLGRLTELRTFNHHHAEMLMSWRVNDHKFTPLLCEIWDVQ
Assay: cell-based FXR transcription assay, FXR responsive promoter linked to luciferase reporter
Settings: for RE^a / EC50: cell-based FXR reporter assay; for RE^a: footnote a not given; for FXR activation, in words: cell-based reporter assay, SAR discussion; for EC50: determined with Prism 3.0
Text: In addition to ensuring that only cell permeable compounds were selected for further optimization, this approach allows for the detection of FXR activation in a natural system (i.e., correct folding of the protein and in the presence of a complete compliment of co-activators and co-repressors).
The feasibility of creating high throughput screens (HTS) for ORs was explored using FXR as a candidate orphan receptor (OR) with a known activator, chenodeoxycholic acid (CDCA) as a ligand. The screen is based on the co-transfection of a full-length receptor with the reporter vector containing a natural hormone response element under a minimal eukaryotic promoter. […] Using this 384-well format, the high throughput screening (HTS) approach to FXR as a candidate OR was employed. […] A central question in the feasibility studies is whether this library is suitable for screening for nuclear receptor ligands. Samples of this library were first reformatted into a 384-well format and then subjected to the FXR cell-based assays described above and assessed for FXR-mediated transcriptional activity. Cells were exposed to approximately 10 μM of sample for 18 hrs prior to washing and luciferase analysis.
EC50 values were determined with Prism 3.0 software via the activity of the subject compound in the previously described cell based assay.

Structure (SMILES)	RE^a	FXR activation, in words	EC50 [nM]
COC(=O)/C=C/c1cccc(NC(=O)C2CCCCC2)c1 [Compound 132]	0.09		
CC(C)(C)OC(=O)C=Cc1ccc(CN(C(=O)C2CCCCC2)c2cccc(C=CCOc3ccccc3)c2)cc1 [Compound 138]	0.45		
COC(=O)/C=C/c1cccc(N(Cc2ccc(/C=C/c3ccccc3F)cc2)C(=O)C(C)C)c1 [Compound 193]	1.17	excellent activity	
COC(=O)C=Cc1cccc(N(Cc2ccc(C=Cc3ccccn3)cc2)C(=O)NC(C)C)c1 [Compound 209]	0.68		
COC(=O)C=Cc1cccc(N(Cc2ccc(C=CC(=O)N(C)C)cc2)C(=O)C2CCCCC2)c1 [Compound 154]	0.66		
COC(=O)C=Cc1cccc(N(Cc2ccc3c(c2OC)OC(C)(C)C(O)C3Sc2ccccc2)C(=O)c2ccccc2)c1 (centres unmarked) [Compound 98]		did not improve the activity	
COC(=O)/C=C/c1cccc(N(Cc2ccc(/C=C/c3ccccc3)cc2)C(=O)NC(C)C)c1 [Compound 200]	1.38		
COC(=O)C=Cc1cccc(N(Cc2ccc(-c3ccc(C)s3)cc2)C(=O)C2CCCCC2)c1 [Compound 128]	1.78		
COC(=O)/C=C/c1cccc(N(Cc2ccc(-c3ccccc3OC)cc2)C(=O)NC(C)C)c1 [Compound 220]	0.09		
COC(=O)/C=C/c1cccc(N(Cc2ccc(-c3cccc(Cl)c3)cc2)C(=O)C(C)C)c1 [Compound 233]	1.52	excellent activity	77
COC(=O)/C=C/c1cccc(N(Cc2ccc(/C=C/c3cccc(F)c3)cc2)C(=O)NC(C)C)c1 [Compound 203]	0.61		
COC(=O)C=Cc1cccc(N(Cc2ccc(C=Cc3ccc(F)cc3)cc2)C(=O)C2CCCCC2)c1 [Compound 204]	0.53	excellent activity; also recorded: among the most active	
COC(=O)/C=C/c1cccc(N(Cc2ccc(/C=C/c3cccc(Cl)c3)cc2)C(=O)C(C)C)c1 [Compound 181]	1.09	excellent activity	164
COC(=O)/C=C/c1cccc(N(Cc2ccc3c(c2OC)OC(C)(C)C=C3)C(=O)C2CC2)c1 [Compound 29]		substantially better activator of FXR than compound 26; also recorded: capable of activating FXR to a significant extent	
COC(=O)/C=C/c1cccc(N(Cc2ccc(/C=C/c3c(C)cc(C)cc3C)cc2)C(=O)C(C)C)c1 [Compound 196]	0.30		
COC(=O)/C=C/c1cccc(N(Cc2ccc(-c3cccc(OC)c3)cc2)C(=O)C2CCCCC2)c1 [Compound 223]	1.51		
COC(=O)/C=C/c1cccc(N(Cc2ccc3c(c2OC)OC(C)(C)[C@@H](O)[C@H]3O)C(=O)c2ccccc2)c1 (relative stereo) [Compound 93]		did not improve the activity	
COC(=O)C=Cc1cccc(N(Cc2ccc(C=CC(=O)OC(C)(C)C)cc2)C(=O)C2CCC2)c1 [Compound 141]	1.84	excellent activity	
COC(=O)/C=C/c1cccc(N(Cc2ccc(-c3ccc(SC)cc3)cc2)C(=O)C2CCCCC2)c1 [Compound 125]	1.74	excellent activity	
COC(=O)C=Cc1cccc(N(Cc2ccc(C=CC(=O)OC(C)(C)C)cc2OCc2ccccc2)C(=O)C2CCCCC2)c1 [Compound 163]	0.38		
COC(=O)/C=C/c1cccc(N(Cc2ccc(/C=C/c3cccc(C(F)(F)F)c3)cc2)C(=O)NC(C)C)c1 [Compound 188]	0.31		
CCOC(=O)COc1cc(C=CC(=O)OC(C)(C)C)ccc1CN(C(=O)C1CCCCC1)c1cccc(C=CC(=O)OC)c1 [Compound 167]	0.18		
COC(=O)/C=C/c1cccc(N(Cc2ccc(-c3cccc(OC)c3)cc2)C(=O)C(C)C)c1 [Compound 224]	1.28	excellent activity	
COC(=O)C=Cc1cccc(N(Cc2ccc(C=CC(=O)OC(C)(C)C)cc2)C(=O)C2CCCC2)c1 [Compound 142]	2.16	excellent activity	
COC(=O)/C=C/c1cccc(N(Cc2ccc(/C=C/C(=O)OC(C)(C)C)cc2)C(=O)NC(C)C)c1 [Compound 145]	1.96		
COC(=O)/C=C/c1cccc(N(Cc2ccc(-c3cc(Cl)ccc3OC)cc2)C(=O)C2CCCCC2)c1 [Compound 241]	1.16		

Structure (SMILES)	RE^a	FXR activation, in words	EC50 [nM]
CCOc1cccc(-c2ccc(CN(C(=O)C(C)C)c3cccc(/C=C/C(=O)OC)c3)cc2)c1 [Compound 227]	1.03		
COC(=O)/C=C/c1cccc(N(Cc2ccc3c(c2OC)OC(C)(C)C=C3C(=O)O)C(=O)c2ccccc2)c1 [Compound 86]		did not improve the activity	
COC(=O)/C=C/c1cccc(N(Cc2ccc(-c3cccc(OC(F)(F)F)c3)cc2)C(=O)NC(C)C)c1 [Compound 255]	0.09		
COC(=O)C=Cc1cccc(N(Cc2ccc(C=Cc3scnc3C)cc2)C(=O)NC(C)C)c1 [Compound 212]	0.42		
COC(=O)/C=C/c1cccc(N(Cc2ccc(/C=C/C(=O)OC(C)(C)C)cc2)C(=O)C2CCCCC2)c1 [Compound 105]	2.12		
COC(=O)/C=C/c1cccc(N(Cc2ccc(/C=C/c3ccccc3F)cc2)C(=O)NC(C)C)c1 [Compound 194]	0.69		
COC(=O)/C=C/c1cccc(N(C)Cc2ccc3c(c2OC)OC(C)(C)C=C3)c1 [Compound 79]		inactive	
COC/C=C/c1cccc(N(Cc2ccc3c(c2OC)OC(C)(C)C=C3)C(=O)C2CC2)c1 [Compound 33]		capable of activating FXR to a significant extent	
COC(=O)/C=C/c1cccc(N(Cc2ccc(-c3c(OC)cccc3OC)cc2)C(=O)C2CCCCC2)c1 [Compound 256]	0.12	excellent activity	
COCC=Cc1ccc(CN(C(=O)C2CCCCC2)c2cccc(C=CC(=O)OC)c2)cc1 [Compound 156]	1.63		
COC(=O)/C=C/c1cccc(N(Cc2ccc(-c3ccc(N(C)C)cc3)cc2)C(=O)NC(C)C)c1 [Compound 261]	1.01		
COC(=O)C=Cc1cccc(N(Cc2ccc(-c3ccc(C(C)=O)s3)cc2)C(=O)C2CCCCC2)c1 [Compound 129]	1.48		
COC(=O)/C=C/c1cccc(N(Cc2cccc(OC)c2)C(=O)C2CCCCC2)c1 [Compound 115]	0.11		
COC(=O)/C=C/c1cccc(N(Cc2ccc(-c3cccc(Cl)c3)cc2)C(=O)NC(C)C)c1 [Compound 234]	0.49		
COC(=O)/C=C/c1cccc(N(Cc2ccc(-c3ccc(C)cc3)cc2)C(=O)C(C)C)c1 [Compound 236]	1.48	excellent activity	
COC(=O)/C=C/c1cccc(N(Cc2ccc(/C=C/c3ccc(F)cc3)cc2)C(=O)C(C)C)c1 [Compound 205]	1.19	excellent activity	120
COC(=O)/C=C/c1cccc(N(Cc2ccc(-c3ccc(OC)cc3)cc2)C(=O)C2CCCCC2)c1 [Compound 229]	1.71	excellent activity	
COC(=O)CCc1cccc(N(Cc2ccc(/C=C/C(=O)OC(C)(C)C)cc2)C(=O)C2CCCCC2)c1 [Compound 139]	RE^a = 1.38	only a two-fold decrease in potency	
CCOC(=O)C=Cc1ccc(CN(C(=O)C2CCCCC2)c2cccc(C=CC(=O)OC)c2)cc1 [Compound 151]	1.14		
COC(=O)/C=C/c1cccc(N(Cc2ccc(-c3ccc(C)cc3)cc2)C(=O)C2CCCCC2)c1 [Compound 235]	1.38	excellent activity	
COC(=O)/C=C/c1cccc(N(Cc2ccc(-c3ccc(F)c(Cl)c3)cc2)C(=O)C2CCCCC2)c1 [Compound 247]	1.87	excellent activity	
COC(=O)/C=C/c1cccc(N(Cc2ccccc2/C=C/C(=O)OC(C)(C)C)C(=O)C2CCCCC2)c1 [Compound 109]		only micromolar potency	
COC(=O)/C=C/c1cccc(N(Cc2ccc(-c3cccc(OC(F)(F)F)c3)cc2)C(=O)C(C)C)c1 [Compound 254]	0.69		
COC(=O)/C=C/c1cccc(N(Cc2ccc(-c3ccc(F)c(F)c3)cc2)C(=O)C(C)C)c1 [Compound 214]	1.15		
COC(=O)C=Cc1cccc(N(Cc2ccc(C=Cc3c(C)cc(C)cc3C)cc2)C(=O)C2CCCCC2)c1 [Compound 195]	0.24	among the least active	
COC(=O)/C=C/c1cccc(N(Cc2ccc(-c3cccc(OC(F)(F)F)c3)cc2)C(=O)C2CCCCC2)c1 [Compound 253]	0.84		
